What all share (assay type): cell-based
Assay [1] has as its target T1, AT1R-CXCR2 heteromer (Homo sapiens, UniProt P25025+P30556).
T1 sequence (P25025 1-360): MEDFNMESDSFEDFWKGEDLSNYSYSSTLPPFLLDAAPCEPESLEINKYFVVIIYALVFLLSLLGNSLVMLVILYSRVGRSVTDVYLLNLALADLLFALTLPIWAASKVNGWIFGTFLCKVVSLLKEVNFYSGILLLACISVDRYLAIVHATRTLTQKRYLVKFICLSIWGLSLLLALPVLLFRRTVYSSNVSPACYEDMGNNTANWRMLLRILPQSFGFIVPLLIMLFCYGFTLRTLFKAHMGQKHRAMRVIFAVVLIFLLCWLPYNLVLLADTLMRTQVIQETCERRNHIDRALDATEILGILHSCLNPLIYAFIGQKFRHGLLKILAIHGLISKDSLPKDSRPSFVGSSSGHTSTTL
T1 sequence (P30556 1-359): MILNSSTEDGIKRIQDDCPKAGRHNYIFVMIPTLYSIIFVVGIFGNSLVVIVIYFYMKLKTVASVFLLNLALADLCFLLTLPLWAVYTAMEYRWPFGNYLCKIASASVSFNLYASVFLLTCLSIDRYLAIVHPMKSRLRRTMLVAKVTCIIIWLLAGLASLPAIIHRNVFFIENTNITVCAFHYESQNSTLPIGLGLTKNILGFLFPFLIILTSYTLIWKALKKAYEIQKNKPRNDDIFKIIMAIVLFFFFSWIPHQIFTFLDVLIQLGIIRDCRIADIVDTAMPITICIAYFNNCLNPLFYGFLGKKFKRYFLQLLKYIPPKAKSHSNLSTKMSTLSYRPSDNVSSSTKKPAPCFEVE
The assay can be described thus: BRET Gi coupling, CXCR2/Rluc8, Venus/mGsi and HA-AT1R, pre-treatment with antagonists/inverse agonists. The following applies: FIGS. 6-15. The procedure:
(§1) HEK293FT cells were seeded in 6-well plates at a density of approximately 700,000 cells/well and maintained at 37° C., 5% CO2 in Complete Media (DMEM containing 0.3 mg/ml glutamine, 100 IU/ml penicillin and 100 μg/ml streptomycin (Gibco/Thermo Fisher)) supplemented with 10% fetal calf serum (FCS; Bovogen). Transient transfections were carried out 24 h after seeding using FuGene6™ (Promega) according to manufacturer instructions. 24 h post-transfection, cells were washed with PBS, detached using 0.05% trypsin/0.53 mM EDTA, resuspended in HEPES-buffered phenol red free Complete Media containing 5% FCS and added to a poly-L-lysine-coated white 96-well microplate (Greiner Bio-One). 48 h post-transfection, bioluminescence resonance energy transfer (BRET) assays were carried out following pre-incubation of cells with EnduRen™ (Promega) at a final concentration of 30 μM, at 37° C., 5% CO2 for 2 h. BRET measurements were taken at 37° C. using the LUMlstar™ or CLARIOstar™ (BMG Labtech).
(§2) For antagonist/inverse agonist assays, cells were pre-incubated with EnduRen for 1.5 hours, followed by the addition of vehicle or antagonists/inverse agonists (10 μM) for another 30 minutes.
(§3) The BRET signal observed between interacting proteins is normalized by subtracting the background BRET ratio. […] In the following examples, the second calculation will be used and the signal is described as ligand-induced BRET′. Furthermore, for data shown in FIGS. 4 to 20, all data points in a given set are corrected relative to the final data point prior to agonist treatment, which is fixed to zero. In keys on FIGS. 7 to 20, “>” means “followed by after 50 minutes”, with agonists added at time zero on the x-axes.
(§4) Prior to agonist treatment (added at 0 minutes), a baseline BRET signal was recorded for each of the combinations for 20 minutes. Data were calculated as ligand-induced BRET relative to the ‘vehicle followed by vehicle’ (veh>veh) data set.
On the technique in general: In BRET a luciferase serves as donor, and the signal depends on an acceptor being close.

Assay [2] concerns the target T1, AT1R-CXCR2 heteromer. The assay can be described thus: BRET trafficking of CXCR2/Rluc8 (Venus/Kras, Rab5, Rab8) with HA-AT1R, pre-treatment with vehicle or antagonists/inverse agonists. The conditions noted are these: 50 minutes after pre-treatment (10 μM). The procedure:
as §1, §2, §3, §4

The target of assay [3] is T2, AT1R-CXCR2 heteromer (Homo sapiens, UniProt P25025+P30556).
T2 sequence (P30556 1-359): T1 sequence (P30556 1-359)
T2 sequence (P25025 1-360): T1 sequence (P25025 1-360)
The assay can be described thus: BRET trafficking of AT1R/Rluc8 (Venus/Kras, Rab5) with unlabelled CXCR2, pre-treatment with vehicle or antagonists/inverse agonists. The conditions noted are these: 50 minutes after pre-treatment (10 μM). The method, then:
as §1, §2, §3, §4

Turning to `CCCCC(=O)N(Cc1ccc(-c2ccccc2-c2nnn[nH]2)cc1)[C@H](C(=O)O)C(C)C` [valsartan], the “effect of CXCL8 only on CXCR2/Rluc8-Venus/mGsi BRET” value in assay [1] (10 nM CXCL8, 50 minutes after pre-treatment with antagonists/inverse agonists (10 μM)) is reported as “not being altered”. Also, the “effect of CXCL8 and AngII combined on CXCR2/Rluc8-Venus/mGsi BRET” value in assay [1] (10 nM CXCL8 and 100 nM AngII, 50 minutes after pre-treatment with antagonists/inverse agonists (10 μM)) is recorded as “indistinguishable from that observed with CXCL8 only”. Moreover, the “effect of AngII only on CXCR2/Rluc8-Venus/mGsi BRET” value in assay [1] (100 nM AngII, 50 minutes after pre-treatment with antagonists/inverse agonists (10 μM)) was “completely inhibited”. The “effect of both CXCL8 and AngII combined on CXCR2/Rluc8-Venus/Kras BRET” value in assay [2] (10 nM CXCL8 and 100 nM AngII, FIG. 16C, 16E-16H) is recorded as “indistinguishable from the effect observed with CXCL8 only”. Moreover, the “effect of both CXCL8 and AngII combined on CXCR2/Rluc8-Venus/Rab5 BRET” value in assay [2] (10 nM CXCL8 and 100 nM AngII, FIG. 17C, 17E-17H) is reported as “indistinguishable from the effect observed with CXCL8 only”. Further, the “effect of both CXCL8 and AngII combined on CXCR2/Rluc8-Venus/Rab8 BRET” value in assay [2] (10 nM CXCL8 and 100 nM AngII, FIG. 18C, 18E-18H) was “completely inhibited”. Also, the “effect of AngII on CXCR2/Rluc8-Venus/Kras BRET” value in assay [2] (100 nM AngII only, FIG. 16B, 16D) is “completely inhibited”. The “effect of AngII on CXCR2/Rluc8-Venus/Rab5 BRET” value in assay [2] (100 nM AngII only, FIG. 17B, 17D) is on record as “completely inhibited”. Also, the “effect of AngII on CXCR2/Rluc8-Venus/Rab8 BRET” value in assay [2] (100 nM AngII only, FIG. 18B, 18D) is reported as “completely inhibited”. In addition, the “effect of both CXCL8 and AngII combined on AT1R/Rluc8-Venus/Kras BRET” value in assay [3] (10 nM CXCL8 and 100 nM AngII, FIG. 19B-19F) is given as “completely inhibited”. Besides, the “effect of both CXCL8 and AngII combined on AT1R/Rluc8-Venus/Rab5 BRET” value in assay [3] (10 nM CXCL8 and 100 nM AngII, FIG. 20B-20F) is on record as “completely inhibited”. In addition, in assay [3] (100 nM AngII only, FIG. 19A), the “effect of AngII on AT1R/Rluc8-Venus/Kras BRET” value is “completely inhibited”. The “effect of AngII on AT1R/Rluc8-Venus/Rab5 BRET” value in assay [3] (100 nM AngII only, FIG. 20A) is listed as “completely inhibited”.

Values taken from US20240009191A1, “METHOD AND COMPOSITION FOR THE TREATMENT OF DISEASE” (DIMERIX BIOSCIENCE PTY LTD, priority 2019, published 2024).
